According to the kinase profiling compilation of Christmann-Franck et al. (2016):
Values joined by “and” are separate entries in the source; they are usually repeats but may differ in a detail not shown here. Equal entries are not always repeated.

What was measured:
Assay in all cases: radiometric filter-binding kinase assay
NTRK1 (human) = NTRK1 (human) (UniProt P04629); settings: compound 100.0 µM; ATP 20 µM
MAPK3 (human) = MAPK3 (human) (UniProt P27361); settings: compound 100.0 µM; ATP 5 µM
MAP3K9 (human) = MAP3K9 (human) (UniProt P80192); settings: compound 100.0 µM; ATP 20 µM
HIPK3 (human) = HIPK3 (human) (UniProt Q9H422); settings: compound 100.0 µM; ATP 20 µM
INSR (human) = INSR (human) (UniProt P06213); settings: compound 100.0 µM; ATP 20 µM
FGFR1 (human) = FGFR1 (human) (UniProt P11362); settings: compound 100.0 µM; ATP 20 µM
NUAK1 (human) = NUAK1 (human) (UniProt O60285); settings: compound 100.0 µM; ATP 20 µM
EPHB1 (human) = EPHB1 (human) (UniProt P54762); settings: compound 100.0 µM; ATP 20 µM
Sequence of EPHB1 (human) (P54762 whole entry, looked up): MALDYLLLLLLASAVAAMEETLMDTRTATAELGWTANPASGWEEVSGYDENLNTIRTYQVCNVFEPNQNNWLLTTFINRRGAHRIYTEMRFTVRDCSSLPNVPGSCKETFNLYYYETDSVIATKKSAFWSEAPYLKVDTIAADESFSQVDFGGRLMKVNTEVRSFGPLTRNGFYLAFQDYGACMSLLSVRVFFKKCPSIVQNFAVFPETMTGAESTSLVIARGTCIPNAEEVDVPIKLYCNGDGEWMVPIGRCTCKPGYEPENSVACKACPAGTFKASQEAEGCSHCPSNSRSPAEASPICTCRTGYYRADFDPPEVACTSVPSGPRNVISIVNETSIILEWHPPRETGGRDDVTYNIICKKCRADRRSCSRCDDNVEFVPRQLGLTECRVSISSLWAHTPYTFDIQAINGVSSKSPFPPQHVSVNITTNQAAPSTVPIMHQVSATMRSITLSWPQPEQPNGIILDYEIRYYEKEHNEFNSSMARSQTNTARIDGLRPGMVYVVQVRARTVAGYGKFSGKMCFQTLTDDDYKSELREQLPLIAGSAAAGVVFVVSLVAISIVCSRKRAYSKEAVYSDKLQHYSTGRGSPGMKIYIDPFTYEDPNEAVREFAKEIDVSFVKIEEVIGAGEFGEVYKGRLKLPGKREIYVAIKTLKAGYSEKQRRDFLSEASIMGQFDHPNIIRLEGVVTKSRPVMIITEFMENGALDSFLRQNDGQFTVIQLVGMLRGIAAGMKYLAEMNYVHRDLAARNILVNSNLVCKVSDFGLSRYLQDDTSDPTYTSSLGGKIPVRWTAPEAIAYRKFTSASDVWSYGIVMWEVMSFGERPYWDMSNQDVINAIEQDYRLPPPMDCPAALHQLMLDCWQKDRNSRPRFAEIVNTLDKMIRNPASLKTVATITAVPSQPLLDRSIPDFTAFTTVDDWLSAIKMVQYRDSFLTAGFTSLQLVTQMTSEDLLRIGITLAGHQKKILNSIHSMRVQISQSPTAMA

MAPK10 (human) = MAPK10 (human) (UniProt P53779); settings: compound 100.0 µM; ATP 20 µM
TAOK1 (human) = TAOK1 (human) (UniProt Q7L7X3); settings: compound 100.0 µM; ATP 20 µM
DAPK1 (human) = DAPK1 (human) (UniProt P53355); settings: compound 100.0 µM; ATP 5 µM
EPHA2 (human) = EPHA2 (human) (UniProt P29317); settings: compound 100.0 µM; ATP 50 µM
Sequence of EPHA2 (human) (P29317 whole entry, looked up): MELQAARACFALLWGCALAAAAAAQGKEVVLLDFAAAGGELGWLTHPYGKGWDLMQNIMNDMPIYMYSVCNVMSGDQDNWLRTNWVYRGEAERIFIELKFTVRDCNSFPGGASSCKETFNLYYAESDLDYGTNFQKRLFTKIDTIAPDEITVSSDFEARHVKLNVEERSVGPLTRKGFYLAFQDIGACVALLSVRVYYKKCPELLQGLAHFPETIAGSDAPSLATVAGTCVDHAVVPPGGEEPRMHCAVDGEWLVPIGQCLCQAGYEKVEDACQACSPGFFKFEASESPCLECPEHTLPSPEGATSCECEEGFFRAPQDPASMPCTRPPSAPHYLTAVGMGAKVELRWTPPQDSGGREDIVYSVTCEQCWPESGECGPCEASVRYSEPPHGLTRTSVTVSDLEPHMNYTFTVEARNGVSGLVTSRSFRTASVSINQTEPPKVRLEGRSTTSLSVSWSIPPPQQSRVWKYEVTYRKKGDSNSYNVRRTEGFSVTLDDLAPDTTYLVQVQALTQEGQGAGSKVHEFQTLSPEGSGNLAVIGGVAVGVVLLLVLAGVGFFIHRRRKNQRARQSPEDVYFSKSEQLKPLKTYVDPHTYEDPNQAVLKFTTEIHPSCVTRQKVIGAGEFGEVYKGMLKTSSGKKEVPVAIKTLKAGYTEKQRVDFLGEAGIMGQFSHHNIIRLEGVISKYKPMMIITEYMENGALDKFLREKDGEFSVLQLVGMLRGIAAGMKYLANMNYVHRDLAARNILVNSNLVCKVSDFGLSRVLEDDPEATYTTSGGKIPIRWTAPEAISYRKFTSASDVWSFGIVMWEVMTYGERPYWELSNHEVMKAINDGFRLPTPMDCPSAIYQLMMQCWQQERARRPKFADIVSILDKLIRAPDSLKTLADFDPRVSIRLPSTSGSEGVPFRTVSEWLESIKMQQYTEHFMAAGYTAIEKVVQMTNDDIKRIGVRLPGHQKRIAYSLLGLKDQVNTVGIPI

LCK (mouse) = settings: compound 100.0 µM; ATP 50 µM; accession and sequence are those of the human protein
MARK2 (human) = MARK2 (human) (UniProt Q7KZI7); settings: compound 100.0 µM; ATP 20 µM
INSRR (human) = INSRR (human) (UniProt P14616); settings: compound 100.0 µM; ATP 5 µM
BRSK1 (human) = BRSK1 (human) (UniProt Q8TDC3); settings: compound 100.0 µM; ATP 20 µM
HIPK2 (human) = HIPK2 (human) (UniProt Q9H2X6); settings: compound 100.0 µM; ATP 5 µM
MAPK9 (human) = MAPK9 (human) (UniProt P45984); settings: compound 100.0 µM; ATP 20 µM
ZAP70 (human) = ZAP70 (human) (UniProt P43403); settings: compound 100.0 µM; ATP 5 µM
IKBKE (human) = IKBKE (human) (UniProt Q14164); settings: compound 100.0 µM; ATP 50 µM
BTK (human) = BTK (human) (UniProt Q06187); settings: compound 100.0 µM; ATP 50 µM
PKN2 (human) = PKN2 (human) (UniProt Q16513); settings: compound 100.0 µM; ATP 5 µM
EPHB2 (human) = EPHB2 (human) (UniProt P29323); settings: compound 100.0 µM; ATP 20 µM
PRKCZ (human) = PRKCZ (human) (UniProt Q05513); settings: compound 100.0 µM; ATP 5 µM
MARK3 (human) = MARK3 (human) (UniProt P27448); settings: compound 100.0 µM; ATP 5 µM
MAPK1 (human) = MAPK1 (human) (UniProt P28482); settings: compound 100.0 µM; ATP 20 µM
RPS6KA5 KD1 KD2 (human) = RPS6KA5 KD1 KD2 (human) (UniProt O75582); settings: compound 100.0 µM; ATP 20 µM
Sequence of RPS6KA5 KD1 KD2 (human) (O75582 whole entry, looked up): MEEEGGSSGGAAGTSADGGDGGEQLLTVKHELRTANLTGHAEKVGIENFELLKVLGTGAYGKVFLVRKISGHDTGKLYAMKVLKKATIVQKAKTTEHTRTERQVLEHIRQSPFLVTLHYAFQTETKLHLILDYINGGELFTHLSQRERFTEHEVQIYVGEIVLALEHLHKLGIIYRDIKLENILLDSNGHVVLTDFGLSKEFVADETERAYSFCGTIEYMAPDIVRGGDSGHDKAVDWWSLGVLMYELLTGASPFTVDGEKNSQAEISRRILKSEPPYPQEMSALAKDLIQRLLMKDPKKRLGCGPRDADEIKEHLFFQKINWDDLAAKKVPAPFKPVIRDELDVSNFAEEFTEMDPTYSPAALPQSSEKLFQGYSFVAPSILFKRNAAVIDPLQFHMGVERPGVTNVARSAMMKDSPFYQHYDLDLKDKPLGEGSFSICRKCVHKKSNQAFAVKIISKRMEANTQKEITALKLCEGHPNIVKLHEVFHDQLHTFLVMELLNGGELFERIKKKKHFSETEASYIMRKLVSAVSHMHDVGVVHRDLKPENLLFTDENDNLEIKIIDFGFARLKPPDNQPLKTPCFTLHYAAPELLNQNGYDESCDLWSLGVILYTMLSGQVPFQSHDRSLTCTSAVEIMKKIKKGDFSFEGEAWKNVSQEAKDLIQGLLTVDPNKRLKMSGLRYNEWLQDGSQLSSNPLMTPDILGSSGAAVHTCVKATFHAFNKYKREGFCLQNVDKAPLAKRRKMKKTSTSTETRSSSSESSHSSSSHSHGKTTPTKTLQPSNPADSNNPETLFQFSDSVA

MAP3K5 (human) = MAP3K5 (human) (UniProt Q99683); settings: compound 100.0 µM; ATP 50 µM
Sequence of MAP3K5 (human) (Q99683 whole entry, looked up): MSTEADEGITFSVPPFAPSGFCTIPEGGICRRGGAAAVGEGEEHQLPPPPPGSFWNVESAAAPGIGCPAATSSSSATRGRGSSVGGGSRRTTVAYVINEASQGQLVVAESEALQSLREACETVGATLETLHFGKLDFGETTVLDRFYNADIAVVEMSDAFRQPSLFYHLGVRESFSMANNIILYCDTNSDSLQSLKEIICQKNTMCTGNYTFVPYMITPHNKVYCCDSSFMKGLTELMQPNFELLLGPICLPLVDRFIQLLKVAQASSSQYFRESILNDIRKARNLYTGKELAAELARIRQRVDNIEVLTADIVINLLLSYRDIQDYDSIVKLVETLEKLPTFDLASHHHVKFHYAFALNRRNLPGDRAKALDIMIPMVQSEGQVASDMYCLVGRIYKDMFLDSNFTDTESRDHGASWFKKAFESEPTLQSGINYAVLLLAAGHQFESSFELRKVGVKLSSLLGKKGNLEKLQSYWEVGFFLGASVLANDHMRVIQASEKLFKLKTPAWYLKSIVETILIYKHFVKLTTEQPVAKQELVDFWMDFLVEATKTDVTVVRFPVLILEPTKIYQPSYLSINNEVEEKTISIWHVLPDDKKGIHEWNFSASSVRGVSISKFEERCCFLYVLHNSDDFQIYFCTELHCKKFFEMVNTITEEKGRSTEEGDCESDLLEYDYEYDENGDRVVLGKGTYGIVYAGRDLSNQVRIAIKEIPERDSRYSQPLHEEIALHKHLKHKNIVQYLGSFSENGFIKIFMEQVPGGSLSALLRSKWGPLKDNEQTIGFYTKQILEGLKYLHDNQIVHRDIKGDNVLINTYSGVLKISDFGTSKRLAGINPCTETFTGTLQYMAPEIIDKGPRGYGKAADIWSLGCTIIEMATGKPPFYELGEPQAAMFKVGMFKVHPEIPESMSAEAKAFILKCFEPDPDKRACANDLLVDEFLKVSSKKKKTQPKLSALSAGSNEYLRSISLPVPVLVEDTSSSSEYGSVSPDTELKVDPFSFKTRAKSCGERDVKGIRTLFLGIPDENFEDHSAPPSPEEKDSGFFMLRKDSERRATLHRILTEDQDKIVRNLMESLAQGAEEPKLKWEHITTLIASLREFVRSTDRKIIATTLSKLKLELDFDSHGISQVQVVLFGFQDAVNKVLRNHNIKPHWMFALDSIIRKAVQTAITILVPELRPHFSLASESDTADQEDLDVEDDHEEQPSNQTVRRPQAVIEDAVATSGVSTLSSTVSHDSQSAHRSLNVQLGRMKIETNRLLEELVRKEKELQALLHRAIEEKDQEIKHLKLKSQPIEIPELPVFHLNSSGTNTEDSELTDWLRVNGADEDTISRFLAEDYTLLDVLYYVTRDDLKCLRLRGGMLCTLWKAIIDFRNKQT

RPS6KA3 KD1 KD2 (human) = RPS6KA3 KD1 KD2 (human) (UniProt P51812); settings: compound 100.0 µM; ATP 50 µM
MAP3K1 (human) = MAP3K1 (human) (UniProt Q13233); settings: compound 100.0 µM; ATP 50 µM
PRKACA (human) = PRKACA (human) (UniProt P17612); settings: compound 100.0 µM; ATP 20 µM
MAPK15 (human) = MAPK15 (human) (UniProt Q8TD08); settings: compound 100.0 µM; ATP 5 µM
MAP2K6 (human) = MAP2K6 (human) (UniProt P52564); settings: compound 100.0 µM; ATP 50 µM
SYK (human) = SYK (human) (UniProt P43405); settings: compound 100.0 µM; ATP 20 µM
DYRK1A (human) = DYRK1A (human) (UniProt Q13627); settings: compound 100.0 µM; ATP 50 µM

Sequence of NTRK1 (human) (P04629 whole entry, looked up): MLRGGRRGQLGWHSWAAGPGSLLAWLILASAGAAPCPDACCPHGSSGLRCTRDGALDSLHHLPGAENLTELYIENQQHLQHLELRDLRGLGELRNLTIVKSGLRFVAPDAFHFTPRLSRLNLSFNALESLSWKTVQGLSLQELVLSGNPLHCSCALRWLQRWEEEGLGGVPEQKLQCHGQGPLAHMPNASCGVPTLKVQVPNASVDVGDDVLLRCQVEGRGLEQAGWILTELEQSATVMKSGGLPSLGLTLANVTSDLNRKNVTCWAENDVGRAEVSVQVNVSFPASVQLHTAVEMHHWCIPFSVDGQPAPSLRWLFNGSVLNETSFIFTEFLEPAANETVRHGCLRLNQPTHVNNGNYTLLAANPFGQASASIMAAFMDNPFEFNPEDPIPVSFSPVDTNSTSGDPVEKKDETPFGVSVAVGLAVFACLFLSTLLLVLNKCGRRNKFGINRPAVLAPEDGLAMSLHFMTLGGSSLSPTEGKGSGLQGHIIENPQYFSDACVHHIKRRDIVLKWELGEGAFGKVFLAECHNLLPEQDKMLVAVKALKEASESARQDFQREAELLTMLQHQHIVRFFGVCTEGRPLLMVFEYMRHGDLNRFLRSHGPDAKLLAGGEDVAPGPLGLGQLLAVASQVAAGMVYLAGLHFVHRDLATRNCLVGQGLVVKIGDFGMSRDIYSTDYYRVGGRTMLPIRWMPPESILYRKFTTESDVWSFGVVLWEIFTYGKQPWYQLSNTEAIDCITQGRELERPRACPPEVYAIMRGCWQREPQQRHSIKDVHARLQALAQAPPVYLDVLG

SMILES	inhibition (NTRK1 (human)) [%]	inhibition (MAPK3 (human)) [%]	inhibition (MAP3K9 (human)) [%]	inhibition (HIPK3 (human)) [%]	inhibition (INSR (human)) [%]	inhibition (FGFR1 (human)) [%]	inhibition (NUAK1 (human)) [%]	inhibition (EPHB1 (human)) [%]	inhibition (MAPK10 (human)) [%]	inhibition (TAOK1 (human)) [%]	inhibition (DAPK1 (human)) [%]	inhibition (EPHA2 (human)) [%]	inhibition (LCK (mouse)) [%]	inhibition (MARK2 (human)) [%]	inhibition (INSRR (human)) [%]	inhibition (BRSK1 (human)) [%]	inhibition (HIPK2 (human)) [%]	inhibition (MAPK9 (human)) [%]	inhibition (ZAP70 (human)) [%]	inhibition (IKBKE (human)) [%]	other results
O=C(Nc1cnc2[nH]ccn2c1=O)c1ccccc1	39	10	2	0	11	14	0	17	0	0	16	31	23	0	11	14	7	11	9	3	inhibition (BTK (human)): 14%; inhibition (PKN2 (human)): 0%; inhibition (EPHB2 (human)): 14%; inhibition (PRKCZ (human)): 3%; inhibition (MARK3 (human)): 12%; inhibition (MAPK1 (human)): 10%; inhibition (RPS6KA5 KD1 KD2 (human)): 4%; inhibition (MAP3K5 (human)): 0%; inhibition (RPS6KA3 KD1 KD2 (human)): 10%; inhibition (MAP3K1 (human)): 3%; inhibition (PRKACA (human)): 0% and 2%; inhibition (MAPK15 (human)): 7%; inhibition (MAP2K6 (human)): 0%; inhibition (SYK (human)): 22%; inhibition (DYRK1A (human)): 0%
O=c1cc(-c2ccccc2F)nc2[nH]ccn12	50	3	0	0	6	41	6	20	0	3	5	9	23	0	6	44	61	10	0	22	inhibition (BTK (human)): 49%; inhibition (PKN2 (human)): 2%; inhibition (EPHB2 (human)): 0%; inhibition (PRKCZ (human)): 0%; inhibition (MARK3 (human)): 11%; inhibition (MAPK1 (human)): 8%; inhibition (RPS6KA5 KD1 KD2 (human)): 21%; inhibition (MAP3K5 (human)): 8%; inhibition (RPS6KA3 KD1 KD2 (human)): 25%; inhibition (MAP3K1 (human)): 53%; inhibition (PRKACA (human)): 0% and 11%; inhibition (MAPK15 (human)): 18%; inhibition (MAP2K6 (human)): 0%; inhibition (SYK (human)): 20%; inhibition (DYRK1A (human)): 31%
COc1ccc(-c2cc3c(=O)[nH]cnc3s2)cc1OC	15	26	4	0	0	32	0	4	3	28	0	37	29	0	0	45	58	8	0	32	inhibition (BTK (human)): 29%; inhibition (PKN2 (human)): 0%; inhibition (EPHB2 (human)): 17%; inhibition (PRKCZ (human)): 0%; inhibition (MARK3 (human)): 24%; inhibition (MAPK1 (human)): 0%; inhibition (RPS6KA5 KD1 KD2 (human)): 22%; inhibition (MAP3K5 (human)): 19%; inhibition (RPS6KA3 KD1 KD2 (human)): 52%; inhibition (MAP3K1 (human)): 0%; inhibition (PRKACA (human)): 34% and 38%; inhibition (MAPK15 (human)): 18%; inhibition (MAP2K6 (human)): 18%; inhibition (SYK (human)): 0%; inhibition (DYRK1A (human)): 36%
CC(=O)Nc1nc2cnc(-c3c(C)cccc3C)cn2n1	0	10	0	0	0	3	0	0	0	1	0	0	0	0	0	0	18	0	9	0	inhibition (BTK (human)): 0%; inhibition (PKN2 (human)): 0%; inhibition (EPHB2 (human)): 0%; inhibition (PRKCZ (human)): 0%; inhibition (MARK3 (human)): 0%; inhibition (MAPK1 (human)): 0%; inhibition (RPS6KA5 KD1 KD2 (human)): 0%; inhibition (MAP3K5 (human)): 0%; inhibition (RPS6KA3 KD1 KD2 (human)): 23%; inhibition (MAP3K1 (human)): 0%; inhibition (PRKACA (human)): 0% and 1%; inhibition (MAPK15 (human)): 7%; inhibition (MAP2K6 (human)): 0%; inhibition (SYK (human)): 10%; inhibition (DYRK1A (human)): 0%
